From US9695155B2, “Herbicidal substituted pyrimidinyloxy benzene compounds” (E. I. DU PONT DE NEMOURS AND COMPANY, priority 2013, dated 2017)

Key:
kochia = assay: Test C preemergence; assay type: in vivo, Kochia scoparia; conditions: for Kochia plant response rating: preemergence, scale 0 (no effect) to 100 (complete control)
Excerpt: (§1) Seeds of plant species selected from blackgrass (Alopecurus myosuroides), Italian ryegrass (Lolium multiflorum), wheat, winter (winter wheat, Triticum aestivum), galium (catchweed bedstraw, Galium aparine), corn (Zea mays), large (Lg) crabgrass (Digitaria sanguinalis), giant foxtail (Setaria faberii), johnsongrass (Sorghum halepense), lambsquarters (Chenopodium album), morningglory (Ipomoea coccinea), yellow nutsedge (Cyperus esculentus), pigweed (Amaranthus retroflexus), ragweed (common ragweed, Ambrosia elatior), soybean (Glycine max), barnyardgrass (Echinochloa crus-galli), oilseed rape (Brassica napus), waterhemp (common waterhemp, Amaranthus rudis), kochia (Kochia scoparia), wild oat (Avena fatua), surinam grass (Brachiaria decumbens), foxtail, green (green foxtail, Setaria viridis), goosegrass (Eleusine indica), bromegrass, downy (downy bromegrass, Bromus tectorum), nightshade (eastern black nightshade, Solanum ptycanthum), cocklebur (common cocklebur, Xanthium strumarium), cupgrass, woolly (woolly cupgrass, Eriochloa villosa), bermudagrass (Cynodon dactylon), sunflower, (common oilseed sunflower, Helianthus annuus), Russian thistle (Salsola kali), and velvetleaf (Abutilon theophrasti) were planted into a blend of loam soil and sand and treated preemergence with test chemicals formulated in a non-phytotoxic solvent mixture which included a surfactant.
(§2) At the same time, plants selected from these crop and weed species and also barley, winter (winter barley, Hordeum vulgare), windgrass (Apera spica-venti), chickweed (common chickweed, Stellaria media), deadnettle (henbit deadnettle, Lamium amplexicaule), and canarygrass (littleseed canarygrass, Phalaris minor) were planted in pots containing Redi-Earth® planting medium (Scotts Company, 14111 Scottslawn Road, Marysville, Ohio 43041) comprising spaghnum peat moss, vermiculite, wetting agent and starter nutrients and treated with postemergence applications of test chemicals formulated in the same manner. Plants ranged in height from 2 to 18 cm (1- to 4-leaf stage) for postemergence treatments. Treated plants and controls were maintained in a greenhouse for 13 to 15 days, after which time all species were compared to controls and visually evaluated. Plant response ratings, summarized in Table C, are based on a scale of 0 to 100 where 0 is no effect and 100 is complete control. A dash (-) response means no test result.

wild oat = assay: Test C preemergence; assay type: in vivo, Avena fatua; conditions: for Oat, Wild plant response rating: preemergence, scale 0 (no effect) to 100 (complete control)
Excerpt: as §1, §2

bromegrass, downy = assay: Test C postemergence; assay type: in vivo, Bromus tectorum; conditions: for Plant response rating (0 to 100), Bromegrass, Downy: postemergence; for Plant response rating, Bromegrass, Downy: Postemergence, scale 0 to 100 (0 no effect, 100 complete control)
Outline: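 Seeds were sown in loam–sand blend and sprayed preemergence, while plants at 1- to 4-leaf stage (2–18 cm) in peat-based medium received postemergence sprays; test chemicals were formulated in a non-phytotoxic solvent with surfactant. After 13–15 days in a greenhouse, injury was rated visually against controls, 0 (no effect) to 100 (complete control).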

cocklebur = assay: Test C postemergence; assay type: in vivo, Xanthium strumarium; conditions: for Plant response rating (0 to 100), Cocklebur: postemergence; for Plant response rating, Cocklebur: Postemergence, scale 0 to 100 (0 no effect, 100 complete control)
Excerpt: as §1, §2

Russian thistle = assay: Test D preemergence; assay type: in vivo, Salsola kali; parameters: key: 0 = no effect, 100 = complete control
Outline: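 Values are 0–100 visual control ratings (0 none, 100 complete) given 7–21 days after application. Soil for preemergence was silt loam; postemergence plants stood 2–18 cm tall.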

palmer pigweed = assay: Test E postemergence; assay type: in vivo, Amaranthus palmeri; conditions: post-emergence, read-out: Plant response rating, Pigweed, Palmer
Excerpt: Seeds of plant species selected from corn (Zea mays), soybean (Glycine max), velvetleaf (Abutilon theophrasti), lambsquarters (Chenopodium album), wild poinsettia (Euphorbia heterophylla), palmer pigweed (Amaranthus palmeri), waterhemp (common waterhemp, Amaranthus rudis), surinam grass (Brachiaria decumbens), large (Lg) crabgrass (Digitaria sanguinalis), Brazilian crabgrass (Digitaria horizontalis), fall panicum (Panicum dichotomiflorum), giant foxtail (Setaria faberii), green foxtail (Setaria viridis), goosegrass (Eleusine indica), johnsongrass (Sorghum halepense), ragweed (common ragweed, Ambrosia elatior), barnyardgrass (Echinochloa crus-galli), sandbur (southern sandbur, Cenchrus echinatus), arrowleaf sida (Sida rhombifolia), Italian ryegrass (Lolium multiflorum), dayflower (Virginia (VA) dayflower, Commelina virginica), field bindweed (Convolvulus arvensis), morningglory (Ipomoea coccinea), nightshade (eastern black nightshade, Solanum ptycanthum), kochia (Kochia scoparia), yellow nutsedge (Cyperus esculentus), cocklebur (common cocklebur, Xanthium strumarium), smartweed (ladysthumb smartweed, and hairy beggarticks (Bidens pilosa), were planted into a silt loam soil and treated preemergence with test chemicals formulated in a non-phytotoxic solvent mixture which included a surfactant.
At the same time, plants from these crop and weed species and also horseweed (Canada horseweed, Conyza canadensis), waterhemp_RES1, (ALS & Triazine resistant common waterhemp, Amaranthus rudis), and waterhemp_RES2, (ALS & HPPD resistant common waterhemp, Amaranthus rudis) were planted in pots containing Redi-Earth® planting medium (Scotts Company, 14111 Scottslawn Road, Marysville, Ohio 43041) comprising spaghnum peat moss, vermiculite, wetting agent and starter nutrients were treated with postemergence applications of test chemicals formulated in the same manner. Plants ranged in height from 2 to 18 cm for postemergence treatments (1- to 4-leaf stage). Treated plants and controls were maintained in a greenhouse for 14 to 21 days, after which time all species were compared to controls and visually evaluated. Plant response ratings, summarized in Table E, are based on a scale of 0 to 100 where 0 is no effect and 100 is complete control. A dash (-) response means no test result.

[1] = Preemergence, 31 g ai/ha, scale 0 to 100, 0 no effect, 100 complete control

## Clc1cnc(Oc2ccccc2-n2cc(Br)cn2)nc1 [Compound 7, 2-[2-(4-bromo-1H-pyrazol-1-yl)phenoxy]-5-chloropyrimidine]
kochia; 62 g ai/ha
  Kochia plant response rating: 95
kochia; 125 g ai/ha
  Kochia plant response rating: 100
kochia; 250 g ai/ha
  Kochia plant response rating: 100
kochia; [1]
  Plant response rating, Kochia: 55
Wild oat; 62 g ai/ha
  Oat, Wild plant response rating: 5
Wild oat; 125 g ai/ha
  Oat, Wild plant response rating: 50
Wild oat; 250 g ai/ha
  Oat, Wild plant response rating: 80
Wild oat; [1]
  Plant response rating, Oat, Wild: 0
bromegrass, downy; 125 g ai/ha
  Plant response rating (0 to 100), Bromegrass, Downy: 10
bromegrass, downy; 250 g ai/ha
  Plant response rating (0 to 100), Bromegrass, Downy: 10
bromegrass, downy; 31 g ai/ha, 13 to 15 days
  Plant response rating, Bromegrass, Downy: 5
bromegrass, downy; 62 g ai/ha
  Plant response rating, Bromegrass, Downy: 5
cocklebur; 125 g ai/ha
  Plant response rating (0 to 100), Cocklebur: 55
cocklebur; 250 g ai/ha
  Plant response rating (0 to 100), Cocklebur: 80
cocklebur; 31 g ai/ha, 13 to 15 days
  Plant response rating, Cocklebur: 35
cocklebur; 62 g ai/ha
  Plant response rating, Cocklebur: 45
Russian thistle; 31 g ai/ha, scale 0 (no effect) to 100 (complete control)
  Plant response rating, Russian Thistle: 0
Russian thistle; 62 g ai/ha, scale 0-100
  Plant response rating, Russian Thistle: 0
Russian thistle; 125 g ai/ha, scale 0-100
  Plant response rating, Russian Thistle: 0
Russian thistle; 250 g ai/ha, scale 0-100
  Plant response rating, Russian Thistle: 0
Palmer pigweed; Postemergence, 31 g ai/ha, scale 0 to 100
  pest or weed control at 31 g/ha: 50%
Palmer pigweed; Postemergence, 62 g ai/ha, scale 0 to 100
  pest or weed control at 62 g/ha: 75%
Palmer pigweed; Postemergence, 125 g ai/ha, scale 0 to 100
  pest or weed control at 125 g/ha: 85%
Palmer pigweed; postemergence, 8 g ai/ha, scale 0 to 100, 0 no effect, 100 complete control
  pest or weed control at 8 g/ha: 40%
Palmer pigweed; postemergence, 16 g ai/ha, scale 0 to 100, 0 no effect, 100 complete control
  pest or weed control at 16 g/ha: 60%
